From US8093209B2, “Methods of suppressing microglial activation and systemic inflammatory responses” (Cognosci, Incorporated, priority 2002, dated 2012)
Entries after “also recorded” stand apart in the source; their conditions may differ.

Experiments:
[1] = system: thioglycollate-elicited peritoneal macrophages; experiment: [Ca2+]i in Fura-2/AM treated single macrophages, digital imaging microscopy (Example 10); assay type: cell-based, mouse; conditions: for increase in [Ca2+]i levels compared to buffer: macrophage
Procedure: (§1) Macrophage Harvesting. All experiments involving animals were first approved by the Duke Institutional Animal Care and Use Committee. Pathogen-free female C57BL/6 mice and ApoE deficient mice previously backcrossed 10 times to the C57BL/6 strain were obtained from the Jackson Laboratory (Bar Harbor, Me.). Thioglycollate-elicited peritoneal macrophages were harvested by peritoneal lavage using 10 ml of ice-cold Hanks' balanced salt solution containing 10 mM HEPES and 3.5 mM NaHCO3 (HHBSS), pH 7.4. The macrophages were pelleted by centrifugation at 4° C. at ˜800×g for 10 min and resuspended in RPMI 1640 media supplemented with 25 mM HEPES, 12.5 U/ml penicillin, 6.5 mg/ml streptomycin, and 5% fetal bovine serum.
Measurement of [Ca^2+]i in apoE and peptide treated macrophage. Changes in [Ca^2+]i levels in Fura-2/AM treated single cells were quantified using digital imaging microscopy in accordance with known techniques. Macrophages were plated on glass coverslips sitting in 35 mm Petri dishes at a density of 1.5×10^5 cells/cm^2, and allowed to adhere for 2 h in a humidified 5% CO2 incubator at 37° C. The non-adherent cells were aspirated and the monolayers were washed twice with HHBSS. 4 μM Fura-2/AM was incubated with the cells for thirty min in the dark at room temperature and [Ca^2+]i was subsequently measured using a digital imaging microscope in accordance with known techniques. […] To determine if signaling resulted from ligation of the ligand to LRP, cells were preincubated with a 1000-fold molar excess of RAP or 10 mM NiCl2, both of which inhibit ligand binding to LRP, for 5 min prior to stimulation with apoE or peptide. In experiments in which the involvement of a G protein was assessed, monolayers were incubated with 1 μg/ml pertussis toxin for 12 h at 37° C. and Ca^2+ measurements were made as stated above.

[2] = system: thioglycollate-elicited peritoneal macrophages; experiment: Competition between apoE and apoE mimetic peptide: [Ca2+]i on sequential stimulation; assay type: cell-based, mouse
Procedure: Fura-2/AM loaded macrophages were incubated overnight, plated on glass cover slips, stimulated with one ligand, and changes in [Ca^2+]i quantified. Cells were then stimulated with second ligand and Ca^2+ measurements repeated.

[3] = system: thioglycollate-elicited peritoneal macrophages; experiment: IP3 formation in myo-[2-3H]inositol-labeled macrophages (Example 10); assay type: cell-based, mouse
Procedure: as §1, with “serum. Cell viability was determined by the trypan blue exclusion method and was consistently greater then 95%.” for “serum.”
Measurement of IP3 in apoE treated macrophage and effect of pertussis toxin. The formation of IP3 in myo-[2-^3H]inositol-labeled macrophages under various experimental conditions was quantified in accordance with known techniques. Macrophage were plated in 6 well plates (4×10^6 cells/well) and allowed to adhere at 37° C. for 2 h in a humidified 5% CO2 incubator. Medium was aspirated from the monolayers and RPMI 1640 medium containing 0.25% BSA and myo-[2-^3H]inositol (specific activity 10-20 Ci/mmol) was added to each well. […] Radioactivity was determined by placing aliquots in a liquid scintillation counter to determine radioactivity. […] The effect on IP3 formation was measured as described above.

[4] = system: primary rat neuronal/glial cultures exposed to NMDA; experiment: NMDA-induced 45Ca uptake by primary neuronal-glial cultures; assay type: cell-based; conditions: 6 μM peptide, 100 μM NMDA
Procedure: (§2) Primary neuronal-glial cultures were prepared from fetal Sprague-Dawley rat brains at 18 days of gestation as previously described (Pearlstein et al., 1998). Brains were harvested from 10-15 pups and dissected to separate cortex from meninges and subcortical structures using anatomical landmarks. Cortices were pooled and minced into 2 mm^3 pieces in a buffered salt solution supplemented with 20 mM HEPES buffer, pH 7.4, containing 0.25% trypsin. The tissue was incubated for 20 minutes at 37° C. in a 5% CO2/95% room air atmosphere, and washed twice with ice-cold, glutamine-free minimum essential medium (MEM; Life Technologies) containing 15 mM glucose, 5% fetal bovine serum (GIBCO), 5% horse serum (GIBCO), and 1% DNase-I (Sigma Chemical Co., St. Louis, Mo., USA). Tissue pieces were dissociated by trituration through a fire-polished 9-inch Pasteur pipette (I.D.=0.7 mm). The resultant suspension was centrifuged at 50×g for 10 min, the supernatant discarded, and the pellet resuspended in growth medium (MEM supplemented with 15 mM glucose, 5% fetal bovine serum, and 5% horse serum). The dissociated cells were plated to achieve a confluent monolayer using 4×10^5 cells per well in poly-D-lysine coated, 24-well culture plates (Falcon 3047; Becton Dickinson Co., Lincoln Park, N.J., USA). Cultures were maintained undisturbed at 37° C. in a humidified 5% CO2/95% room air atmosphere for 13-16 days prior to use.
Cellular calcium uptake from the extracellular space was assessed using ^45CaCl2 (American Radiolabeled Chemicals, St. Louis, Mo.). After washing the cultures with Mg^2+-free BSS containing 20 mM HEPES buffer, 6 μM peptide or 10 μM MK-801 was added to each well prior to and removed at the end of 100 μM NMDA exposure. ^45Ca (0.28 μCi/ml, 0.9 μCi/well) was added to each well immediately prior to NMDA exposure. The cultures were returned to the incubator and maintained at 37° C. Twenty minutes later, the exposure medium was removed and each well was washed 3 times with ice-cold Mg^2+-free BSS containing 20 mM HEPES buffer. The cells were subsequently lysed by addition of 0.2% sodium dodecyl sulfate (SDS). An aliquot from each well was added to a liquid scintillation vial containing 10 ml Cytoscint™ (ICN, Biochemical Research Product, CA) and radioactivity was determined by scintillation counting and normalized to cell count.

[5] = system: primary rat neuronal/glial cultures exposed to NMDA; experiment: NMDA-induced LDH release in primary neuronal-glial cultures; assay type: cell-based; conditions: peptide 0.3-10 μM, 100 μM NMDA
Procedure: as §2
Mature cultures (13-16 days in vitro) were washed with Mg^2+-free buffered salt solution (BSS) containing 20 mM HEPES buffer (pH7.4) and 1.8 mM CaCl2, prior to the addition of NMDA. Following NMDA exposure, cultures were maintained for 30 minutes at 37° C. in a 5% CO2/95% air atmosphere. The medium containing NMDA was then removed and replaced with MEM supplemented with 20 mM glucose. The cultures were returned to the incubator for 24 h. In all experiments, cellular damage was assessed at 24 h after exposure to NMDA by measurement of the activity of lactate dehydrogenase (LDH) released into the medium as described below. The non-competitive NMDA receptor antagonist, MK-801 (Tocris Cookson Ins., St. Louis, Mo.) at a concentration of 10 μM was used as a positive control. Preliminary dose-response studies were performed to determine the concentration of NMDA (100 μM) required to effect a near-maximal LDH release (ED90) as used in the present study.
The effect of human recombinant apoE (Panverra, Madison, Wis.) on 100 μM NMDA-induced LDH release was assessed and the dose-response curve was obtained (apoE: 0.1-10 μM final concentration). ApoE3, the most common human isoform, was added to the cultures 30 minutes prior to and removed following NMDA exposure. The effect of apoE peptide (133-149) on NMDA (100 μM or 300 μM)-induced LDH release was next assessed and the dose-response curve was obtained in a separate set of sister cultures that were simultaneously treated under one of the following conditions: (1) various doses of peptide (0.3 μM, 1 μM, 3 μM, 6 μM, 10 μM final concentration) were added to the culture immediately prior to and removed at the end of NMDA exposure; (2) no peptide, NMDA exposure; (3) no peptide, no NMDA exposure; (4) no peptide, NMDA exposure with 10 μM MK-801 for 30 minutes. The effect of a scrambled control peptide on NMDA-induced LDH release was similarly assessed.
The effect of time of administration of apoE peptide (133-149) on NMDA-induced LDH release was assessed in a separate set of sister cultures that were simultaneously treated under one of following conditions: (1) peptide was added to the culture medium 24 h prior to and removed immediately before exposure to NMDA; (2) peptide was added immediately prior to and removed at the end of the NMDA exposure; (3) peptide was added immediately following the 30 minutes NMDA exposure; (4) no peptide, NMDA exposure; (5) no peptide, no NMDA exposure. […]

Substance | cells examined showing increase in [Ca2+]i [1] | concentration dependence of [Ca2+]i increase [1] | increase in [Ca2+]i levels compared to buffer [1] | [Ca2+]i level in treated cells, typical experiment ([1]; unstimulated cells 95.33±7.37 nM) [nM] | [Ca2+]i response on repeated or sequential ligand exposure (desensitization) [2] | increase in IP3 levels [3] | concentration dependence of IP3 increase ([3]; stimulated 60 s) | NMDA-induced calcium influx compared to NMDA alone [4] | protection against NMDA toxicity (LDH release), dose response [5]
apoE: Example 10: human recombinant apoE2 obtained commercially from Panvera Corp | 70-80% | dose-dependent | 2-4 fold | 180.25 ± 14.57 | marked attenuation in [Ca^2+]i suggesting tachyphylaxis; also recorded: loss of [Ca^2+]i response to apoE addition following initial exposure to peptide | 1.5-2.0 fold | dose-dependent |  | 
scrambled control peptide: Example 10: scrambled control of identical size and amino acid composition to the 20 amino acid ApoE mimetic peptide (Ac-LARKLRSRLVHLRLKLR-NH2) [reference compound] |  |  | no effect |  | No desensitization in calcium response |  |  | no effect on calcium influx | no protection was observed
